Assay results published in PubChem BioAssay (NCI).
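The concentration for 50% growth inhibition is given as GI50. At the TGI there is no net growth.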

How the values were obtained:
Experiment in all cases: DTP human tumour cell line panel, 384-well format
[1] = test system: 786-0 renal
[2] = test system: A498 renal
[3] = test system: A549 NSCLC
[4] = test system: ACHN renal
[5] = test system: BT-549 breast
[6] = test system: CAKI-1 renal
[7] = test system: CCRF-CEM leukemia
[8] = test system: COLO 205 colon
[9] = test system: DU-145 prostate
[10] = test system: EKVX NSCLC
[11] = test system: HCC-2998 colon
[12] = test system: HCT-116 colon
[13] = test system: HCT-15 colon
[14] = test system: HL-60(TB) leukemia
[15] = test system: HOP-62 NSCLC
[16] = test system: HOP-92 NSCLC
[17] = test system: HS 578T breast
[18] = test system: HT29 colon
[19] = test system: IGROV1 ovarian
[20] = test system: K-562 leukemia
[21] = test system: KM12 colon
[22] = test system: LOX IMVI melanoma
[23] = test system: M14 melanoma
[24] = test system: MALME-3M melanoma
[25] = test system: MCF7 breast
[26] = test system: MDA-MB-231 breast
[27] = test system: MDA-MB-435 melanoma
[28] = test system: MDA-MB-468 breast
[29] = test system: MOLT-4 leukemia
[30] = test system: NCI-H226 lung
[31] = test system: NCI-H23 lung
[32] = test system: NCI-H322M lung
[33] = test system: NCI-H460 NSCLC
[34] = test system: NCI-H522 lung
[35] = test system: NCI/ADR-RES ovarian
[36] = test system: OVCAR-3 ovarian
[37] = test system: OVCAR-4 ovarian
[38] = test system: OVCAR-5 ovarian
[39] = test system: OVCAR-8 ovarian
[40] = test system: PC-3 prostate
[41] = test system: RPMI-8226 leukemia
[42] = test system: RXF 393 renal
[43] = test system: SF-268 CNS
[44] = test system: SF-295 CNS
[45] = test system: SF-539 CNS
[46] = test system: SK-MEL-2 melanoma
[47] = test system: SK-MEL-28 melanoma
[48] = test system: SK-MEL-5 melanoma
[49] = test system: SK-OV-3 ovarian
[50] = test system: SN12C renal
[51] = test system: SNB-19 CNS
[52] = test system: SNB-75 CNS
[53] = test system: SR leukemia
[54] = test system: SW-620 colon
[55] = test system: T-47D breast
[56] = test system: TK-10 renal
[57] = test system: U251 glioblastoma
[58] = test system: UACC-257 melanoma
[59] = test system: UACC-62 melanoma

Oc1ccc(-c2nc(-c3ccc(F)cc3)c(-c3ccncc3)[nH]2)cc1
GI50 [1]: 12.9 µM | TGI [1]: 26.6 µM | GI50 [2]: 16.4 µM | TGI [2]: 46.2 µM | GI50 [3]: 19.2 µM | TGI [3]: > 52.1 µM | GI50 [4]: 12.2 µM | TGI [4]: 31.5 µM | GI50 [5]: 19.2 µM | TGI [5]: > 57.2 µM | GI50 [6]: 7.98 µM | TGI [6]: > 48.4 µM | GI50 [7]: 10.1 µM | TGI [7]: 21.8 µM | GI50 [8]: 8.47 µM | TGI [8]: 22.1 µM | GI50 [9]: 14.8 µM | TGI [9]: 31.2 µM | GI50 [10]: 14.7 µM | TGI [10]: 33.2 µM | GI50 [11]: 23.9 µM | TGI [11]: 40.8 µM | GI50 [12]: 20 µM | TGI [12]: > 53.3 µM | GI50 [13]: 15.4 µM | TGI [13]: 32.9 µM | GI50 [14]: 14.6 µM | TGI [14]: 27.7 µM | GI50 [15]: 19 µM | TGI [15]: 42.9 µM | GI50 [16]: 15.9 µM | TGI [16]: 60.4 µM | GI50 [17]: 15.7 µM | TGI [17]: 31.3 µM | GI50 [18]: 5.85 µM | TGI [18]: 20.9 µM | GI50 [19]: 1.62 µM | TGI [19]: 20.9 µM | GI50 [20]: 10.5 µM | TGI [20]: 24.2 µM | GI50 [21]: 20.2 µM | TGI [21]: 37.2 µM | GI50 [22]: 17.6 µM | TGI [22]: 31.8 µM | GI50 [23]: 5.7 µM | TGI [23]: 21 µM | GI50 [24]: 3.34 µM | TGI [24]: 9.1 µM | GI50 [25]: 18.8 µM | TGI [25]: > 100 µM | GI50 [26]: 20.7 µM | TGI [26]: > 60 µM | GI50 [27]: 10.4 µM | TGI [27]: 44 µM | GI50 [28]: 4.59 µM | TGI [28]: 19.3 µM | GI50 [29]: 11.9 µM | TGI [29]: 24.3 µM | GI50 [30]: 18.7 µM | TGI [30]: 39.4 µM | GI50 [31]: 29.2 µM | TGI [31]: 85.4 µM | GI50 [32]: 21.3 µM | TGI [32]: 52.5 µM | GI50 [33]: 15.3 µM | TGI [33]: 28.9 µM | GI50 [34]: 7.46 µM | TGI [34]: 22.2 µM | GI50 [35]: 20.2 µM | TGI [35]: 46.6 µM | GI50 [36]: 14.9 µM | TGI [36]: 29 µM | GI50 [37]: 47.5 µM | TGI [37]: > 100 µM | GI50 [38]: 23.6 µM | TGI [38]: 47 µM | GI50 [39]: 22.7 µM | TGI [39]: > 100 µM | GI50 [40]: 18.7 µM | TGI [40]: > 57 µM | GI50 [41]: 5.38 µM | TGI [41]: 13.1 µM | GI50 [42]: 15 µM | TGI [42]: 31.5 µM | GI50 [43]: 18.3 µM | TGI [43]: 46.2 µM | GI50 [44]: 17.5 µM | TGI [44]: 33.1 µM | GI50 [45]: 17.6 µM | TGI [45]: 35.8 µM | GI50 [46]: 16.3 µM | TGI [46]: 30 µM | GI50 [47]: 7.27 µM | TGI [47]: 22.4 µM | GI50 [48]: 10.6 µM | TGI [48]: 22.5 µM | GI50 [49]: 13 µM | TGI [49]: 32.7 µM | GI50 [50]: 44.3 µM | TGI [50]: > 100 µM | GI50 [51]: 41.7 µM | TGI [51]: > 100 µM | GI50 [52]: 32.9 µM | TGI [52]: > 85.4 µM | GI50 [53]: 10.3 µM | TGI [53]: 22.1 µM | GI50 [54]: 23.5 µM | TGI [54]: 38.4 µM | GI50 [55]: 12.5 µM | TGI [55]: 27.1 µM | GI50 [56]: 18.8 µM | TGI [56]: 57.3 µM | GI50 [57]: 18.6 µM | TGI [57]: 48.3 µM | GI50 [58]: 21.9 µM | TGI [58]: > 54 µM | GI50 [59]: 3.62 µM | TGI [59]: 16.8 µM
